Source: ChEMBL document CHEMBL3046299, “Neonicotinoid substituents forming a water bridge at the nicotinic acetylcholine receptor” (J Agric Food Chem, 2009)

Legend:
[1] = Displacement of [3H]IMI from nicotinic acetylcholine receptor in Drosophila melanogaster brain
Aphis gossypii = assay: Insecticidal activity against adult Aphis gossypii (cotton aphid) in cucumber cotyledons assessed as mortality at 500 ppm treated for 5 secs before adult infestation measured after 72 hr; format: functional; settings: in Cucumis sativus
Drosophila melanogaster = assay: Displacement of [3H]IMI from nicotinic acetylcholine receptor in Drosophila melanogaster brain at Ki concentration

For `O=[N+]([O-])/N=C1\NCCN1C[C@H]1C[C@@H]2O[C@@H]2C1`, the Ki [1] was 14.8 µM and the mortality at 500 ppm (Aphis gossypii) was 18%.
Molecule `O=[N+]([O-])/N=C1\NCCN1CCCF` has a Ki [1] of 1.7 µM and a mortality at 500 ppm (Aphis gossypii) of 55%.
Work on `C/C(CCN1CCN/C1=N\[N+](=O)[O-])=N\O` yielded a Ki [1] of 40.5 µM and a mortality at 500 ppm (Aphis gossypii) of 10%.
For `CC(=O)CCN1CCN(Cc2ccc(Cl)nc2)/C1=N/[N+](=O)[O-]`, the Ki [1] was 6.1 µM.
Molecule `O=[N+]([O-])/N=C1\NCCN1CCCCF` has a Ki [1] of 3.5 µM and a mortality at 500 ppm (Aphis gossypii) of 27%.
In the case of `CN/C(=N/CC1CCOC1)N[N+](=O)[O-]` (stereo not given) [DINOTEFURAN], the Ki [1] is reported as 0.076 µM and the mortality at 500 ppm (Aphis gossypii) is reported as 100%.
Work on `CCCN1CCN(Cc2ccc(Cl)nc2)/C1=N/[N+](=O)[O-]` yielded a Ki [1] of 0.89 µM.
Work on `O=[N+]([O-])/N=C1\NCCN1CC1CC=CC1` yielded a Ki [1] of 20.1 µM and a mortality at 500 ppm (Aphis gossypii) of 20%.
Work on `O=[N+]([O-])/N=C1\NCCN1CCCCl` yielded a Ki [1] of 3.6 µM and a mortality at 500 ppm (Aphis gossypii) of 55%.
Work on `O=[N+]([O-])/N=C1\NCCN1CCC(O)C(F)(F)F` (stereo not given) yielded a Ki [1] of 18.1 µM.
Molecule `CN/C(=N\[N+](=O)[O-])NCc1cnc(Cl)s1` [CLOTHIANIDINE] has a Ki [1] of 0.004 µM and a mortality at 500 ppm (Aphis gossypii) of 100%.
For `O=[N+]([O-])/N=C1\NCCN1CCF`, the Ki [1] was no less than 100 µM, the inhibition (Drosophila melanogaster) was 44% and the mortality at 500 ppm (Aphis gossypii) was 47%.
`O=C(CCN1CCN/C1=N\[N+](=O)[O-])C(F)(F)F` showed a Ki [1] of no less than 100 µM, an inhibition (Drosophila melanogaster) of 43% and a mortality at 500 ppm (Aphis gossypii) of 0%.
In the case of `CC(=O)CCN1CCN/C1=N\[N+](=O)[O-]`, the Ki [1] is reported as 1.2 µM and the mortality at 500 ppm (Aphis gossypii) is reported as 8%.
For `O=[N+]([O-])/N=C1\N(CCCF)CCN1Cc1ccc(Cl)nc1`, the Ki [1] was 0.74 µM.
`O=[N+]([O-])/N=C1\NCCN1Cc1ccc(Cl)nc1` [IMIDACLOPRID] showed a Ki [1] of 0.003 µM and a mortality at 500 ppm (Aphis gossypii) of 100%.
For `O=[N+]([O-])/N=C1\NCCN1C[C@@H]1C[C@@H]2O[C@@H]2C1`, the Ki [1] was 8.1 µM and the mortality at 500 ppm (Aphis gossypii) was 0%.
`O=[N+]([O-])/N=C1\NCCN1CC1CCOC1` (stereo not given) gave a Ki [1] of 0.11 µM and a mortality at 500 ppm (Aphis gossypii) of 100%.
Work on `CC(=O)O/C(=C\CN1CCN/C1=N\[N+](=O)[O-])C(F)(F)F` yielded a Ki [1] of 16.3 µM.
Molecule `CCCN1CCN/C1=N\[N+](=O)[O-]` has a Ki [1] of 12.8 µM and a mortality at 500 ppm (Aphis gossypii) of 31%.
`O=[N+]([O-])/N=C1\N(CCC(O)C(F)(F)F)CCN1Cc1ccc(Cl)nc1` (stereo not given) gave a Ki [1] of 5 µM.
`CO/N=C(\C)CCN1CCN/C1=N\[N+](=O)[O-]` gave a Ki [1] of 61.2 µM and a mortality at 500 ppm (Aphis gossypii) of 2%.
